Assays:
[1] = test system: glucocorticoid receptor function; experiment: one or more of the above assays (GR binding and glucocorticoid receptor cell assays: aromatase, IL-6, TAT, MMTV-Luc, IL-8, ICAM-Luc); format: cell-based; conditions: assay not specified per compound
[2] = target: T1, human glucocorticoid receptor (GR) complex (Homo sapiens, UniProt P04150); experiment: Glucocorticoid receptor competitive binding assay (fluorescence polarization, TAMRA-labeled dexamethasone probe); conditions: compounds of Formula (IA)
T1 construct: made in house; host or cells: insect expression system (baculovirus lysate)
T1 sequence (P04150 1-777): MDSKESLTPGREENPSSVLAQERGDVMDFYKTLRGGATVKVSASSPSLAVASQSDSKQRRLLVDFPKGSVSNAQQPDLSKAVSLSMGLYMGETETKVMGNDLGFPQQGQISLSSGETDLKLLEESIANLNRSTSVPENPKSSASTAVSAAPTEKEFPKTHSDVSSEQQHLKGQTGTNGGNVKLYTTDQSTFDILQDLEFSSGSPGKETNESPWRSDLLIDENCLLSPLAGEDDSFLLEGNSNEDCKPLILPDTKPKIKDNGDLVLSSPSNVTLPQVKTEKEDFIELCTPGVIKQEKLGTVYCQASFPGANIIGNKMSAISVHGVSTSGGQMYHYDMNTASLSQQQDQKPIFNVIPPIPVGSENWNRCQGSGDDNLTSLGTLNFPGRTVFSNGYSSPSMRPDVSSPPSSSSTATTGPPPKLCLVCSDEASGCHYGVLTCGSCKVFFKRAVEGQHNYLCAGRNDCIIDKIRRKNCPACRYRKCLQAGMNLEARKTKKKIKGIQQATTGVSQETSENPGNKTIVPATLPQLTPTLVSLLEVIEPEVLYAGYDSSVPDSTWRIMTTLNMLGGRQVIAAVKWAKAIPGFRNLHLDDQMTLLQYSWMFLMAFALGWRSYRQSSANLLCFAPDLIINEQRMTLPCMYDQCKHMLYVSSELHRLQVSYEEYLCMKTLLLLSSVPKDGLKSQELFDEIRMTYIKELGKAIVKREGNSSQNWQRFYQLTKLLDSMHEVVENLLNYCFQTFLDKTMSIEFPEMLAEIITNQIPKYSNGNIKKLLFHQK
Summary of the method: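 Fluorescence-polarization competition against 15 nM TAMRA-dexamethasone (stock added to the mix) for human GR complex from baculovirus lysate diluted 1:170. Buffer: 10 mM TES, 50 mM KCl, 20 mM Na2MoO4, 1.5 mM EDTA, 0.04% CHAPS, 10% glycerol, 1 mM DTT, pH 7.4. IC50 from 4-parameter logistic fit.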

| SMILES | activity as agonists of the glucocorticoid receptor function in one or more of the above assays [1] | activity in the GR binding assay [2] |
| --- | --- | --- |
| COc1cc(F)ccc1C(C)(C)CC(O)(Cc1cc(C)nc(C)c1)C(F)(F)F (stereo not shown) [2-(2,6-Dimethylpyridin-4-ylmethyl)-1,1,1-trifluoro-4-(4-fluoro-2-methoxyphenyl)-4-methylpentan-2-ol] | potent agonists | potent activity |
| Cc1cc(F)ccc1C(C)(C)CC(O)(Cc1ccnc2ccccc12)C(F)(F)F (stereo not shown) [1,1,1-Trifluoro-4-(4-fluoro-2-methylphenyl)-4-methyl-2-quinolin-4-ylmethylpentan-2-ol] | potent agonists | potent activity |
| COc1ccc(F)cc1C(C)(C)CC(O)(Cc1cc2cc(C(N)=O)ccc2[nH]1)C(F)(F)F (stereo not shown) [2-[4-(5-Fluoro-2-methoxyphenyl)-2-hydroxy-4-methyl-2-trifluoromethylpentyl]-1H-indole-5-carboxylic acid amide] | potent agonists | potent activity |
| COc1ccc(F)cc1C(C)(C)CC(O)(Cc1ccnc2cc(C)ccc12)C(F)(F)F (stereo not shown) [1,1,1-Trifluoro-4-(5-fluoro-2-methoxyphenyl)-4-methyl-2-(7-methylquinolin-4-ylmethyl)pentan-2-ol] | potent agonists | potent activity |
| CN(C)Cc1cccc(C(C)(C)CC(O)(Cc2cc3cc(C#N)ccc3[nH]2)C(F)(F)F)c1 (stereo not shown) [2-[4-(3-Dimethylaminomethylphenyl)-2-hydroxy-4-methyl-2-trifluoromethylpentyl]-1H-indole-5-carbonitrile] | potent agonists | potent activity |
| CC(C)(CC(O)(Cc1cc2ccccc2[nH]1)C(F)(F)F)c1cccc(Br)c1 (stereo not shown) [4-(3-Bromophenyl)-1,1,1-trifluoro-2-(1H-indol-2-ylmethyl)-4-methylpentan-2-ol] | potent agonists | potent activity |
| COc1ccc(F)cc1C(C)(C)CC(O)(Cc1cc2c(OC)ncnc2[nH]1)C(F)(F)F (stereo not shown) [1,1,1-Trifluoro-4-(5-fluoro-2-methoxyphenyl)-2-(4-methoxy-7H-pyrrolo[2,3-d]pyrimidin-6-ylmethyl)-4-methylpentan-2-ol] | potent agonists | potent activity |
| Cc1ccc(F)cc1C(C)(C)CC(O)(Cc1cc2ccnc(F)c2[nH]1)C(F)(F)F (stereo not shown) [1,1,1-Trifluoro-4-(5-fluoro-2-methylphenyl)-2-(7-fluoro-1H-pyrrolo[2,3-c]pyridin-2-ylmethyl)-4-methylpentan-2-ol] | potent agonists | potent activity |
| COc1ccc(C(C)C)cc1C(C)(C)CC(O)(Cc1[nH]c2ccccc2c1C#N)C(F)(F)F (stereo not shown) [2-[2-Hydroxy-4-(5-isopropyl-2-methoxyphenyl)-4-methyl-2-trifluoromethylpentyl]-1H-indole-3-carbonitrile] | potent agonists | potent activity |
| COc1ccc(F)cc1C(C)(C)CC(O)(Cc1[nH]c2ccncc2c1C)C(F)(F)F (stereo not shown) [1,1,1-Trifluoro-4-(5-fluoro-2-methoxyphenyl)-4-methyl-2-(3-methyl-1H pyrrolo[3,2-c]pyridin-2-ylmethyl)pentan-2-ol] | potent agonists | potent activity |
| COc1ccc(F)cc1C(C)(C)CC(O)(Cc1cc2cc(C(=O)N3CCC(O)C3)ccc2[nH]1)C(F)(F)F (stereo not shown) [{2-[4-(5-Fluoro-2-methoxyphenyl)-2-hydroxy-4-methyl-2-trifluoromethylpentyl]-1H-indol-5-yl}(3-hydroxypyrrolidin-1-yl)methanone] | potent agonists | potent activity |
| COc1ccc(F)cc1C(C)(C)CC(O)(Cc1cc2c(C)nc(C)cc2[nH]1)C(F)(F)F (stereo not shown) [2-(4,6-Dimethyl-1H-pyrrolo[3,2-c]pyridin-2-ylmethyl)-1,1,1-trifluoro-4-(5-fluoro-2-methoxyphenyl)-4-methylpentan-2-ol] | potent agonists | potent activity |
| CC(C)(CC(O)(Cc1ccnc2ccccc12)C(F)(F)F)c1ccc(C(F)(F)F)cc1 (stereo not shown) [1,1,1-Trifluoro-4-methyl-2-quinolin-4-ylmethyl-4-(4-trifluoromethylphenyl)pentan-2-ol] | potent agonists | potent activity |
| COC(=O)CNC(=O)c1ccc2[nH]c(CC(O)(CC(C)(C)c3cc(F)ccc3OC)C(F)(F)F)cc2c1 (stereo not shown) [({2-[4-(5-Fluoro-2-methoxyphenyl)-2-hydroxy-4-methyl-2-trifluoromethylpentyl]-1H-indole-5-carbonyl}amino)acetic acid methyl ester] | potent agonists | potent activity |
| CC(C)(CC(O)(Cc1ccnc2ccccc12)C(F)(F)F)c1cccc(O)c1 (stereo not shown) [3-(4,4,4-Trifluoro-3-hydroxy-1,1-dimethyl-3-quinolin-4-ylmethylbutyl)phenol] | potent agonists | potent activity |
| COc1ccc(F)cc1C(C)(C)CC(O)(Cc1cc2cc(Cl)nc(Cl)c2[nH]1)C(F)(F)F (stereo not shown) [2-(5,7-Dichloro-1H-pyrrolo[2,3-c]pyridin-2-ylmethyl)-1,1,1-trifluoro-4-(5-fluoro-2-methoxyphenyl)-4-methylpentan-2-ol] | potent agonists | potent activity |
| Cc1c(CC(O)(CC(C)(C)c2cccc(F)c2)C(F)(F)F)[nH]c2ccccc12 (stereo not shown) [1,1,1-Trifluoro-4-(3-fluorophenyl)-4-methyl-2-(3-methyl-1H-indol-2-ylmethyl)pentan-2-ol] | potent agonists | potent activity |
| COc1ccc(F)cc1C(C)(C)CC(O)(Cc1cc2cc(C(F)(F)F)ncc2[nH]1)C(F)(F)F (stereo not shown) [1,1,1-Trifluoro-4-(5-fluoro-2-methoxyphenyl)-4-methyl-2-(5-trifluoromethyl-1H-pyrrolo[2,3-c]pyridin-2-ylmethyl)pentan-2-ol] | potent agonists | potent activity |
| CC(C)(CC(O)(Cc1cc2ccncc2[nH]1)C(F)(F)F)c1cc(Cl)cc2c1OCC2 (stereo not shown) [4-(5-Chloro-2,3-dihydrobenzofuran-7-yl)-1,1,1-trifluoro-4-methyl-2-(1H-pyrrolo[2,3-c]pyridin-2-ylmethyl)pentan-2-ol] | potent agonists | potent activity |
| CC(C)(CC(O)(Cc1ccnc2ccccc12)C(F)(F)F)c1cccc(-c2ccccc2)c1 (stereo not shown) [4-Biphenyl-3-yl-1,1,1-trifluoro-4-methyl-2-quinolin-4-ylmethylpentan-2-ol] | potent agonists | potent activity |
| COc1ccc(F)cc1C(C)(C)CC(O)(Cc1cc(Cl)nc(Cl)c1C#N)C(F)(F)F (stereo not shown) [2,6-Dichloro-4-[4-(5-fluoro-2-methoxyphenyl)-2-hydroxy-4-methyl-2-trifluoromethylpentyl]nicotinonitrile] | potent agonists | potent activity |
| COc1ccc(F)cc1C(C)(C)CC(O)(Cc1cc2ccc(C#N)cc2[nH]1)C(F)(F)F (stereo not shown) [2-[4-(5-Fluoro-2-methoxyphenyl)-2-hydroxy-4-methyl-2-trifluoromethylpentyl]-1H-indole-6-carbonitrile] | potent agonists | potent activity |
| Cc1ccc(C(C)(C)CC(O)(Cc2cc3ccccc3[nH]2)C(F)(F)F)cc1F (stereo not shown) [1,1,1-Trifluoro-4-(3-fluoro-4-methylphenyl)-2-(1H-indol-2-ylmethyl)-4-methylpentan-2-ol] | potent agonists | potent activity |

Reference: patent publication US8741897B2, “Glucocorticoid mimetics, methods of making them, pharmaceutical compositions and uses thereof” (Boehringer Ingelheim Pharmaceuticals Inc., priority 2003, dated 2014)
